Experimental data published in PMC1851987, “Identification of the Endogenous Key Substrates of the Human Organic Cation Transporter OCT2 and Their Implication in Function of Dopaminergic Neurons” (PLoS ONE, 2007).
Marks after values point to notes of the source that are not given here.

What was measured:
HTZ-146 cells [1] = experiment: Uptake of cyclo(his-pro) and salsolinol into HTZ-146 cells with transport inhibitors; format: cell-based, human; settings: substrates 10 µmol/l, 5 min; inhibitors 10 µmol/l (decynium-22 1 µmol/l)
Experimental: (§1) (D) Relative quantitative real-time expression of OCT2 mRNA in distinct areas of normal human brain and neuroepithelial tumors (TaqMan Assay) normalized to GAPDH.
(§2) For uptake experiments, cells were grown on polystyrene dishes of 60 mm diameter to at least 80% confluence. Prior to addition of test compounds, culture medium was replaced by 3 ml HEPES-modified Krebs buffer (140.0 mmol/l NaCl, 5.0 mmol/l KCl, 2.0 mmol/l CaCl2, 1.0 mmol/l MgCl2, 10.0 mmol/l HEPES, and 5.0 mmol/l D-glucose, adjusted to pH 7.40), and cells were left to equilibrate for 60 min at 37°C. Uptake was terminated after indicated times by washing cells with ice-cold buffer. Cells were lysed with 1 ml of 4 mmol/l perchloric acid and lysates subjected to LC-MS-MS quantification. Cellular protein content was determined after solubilization of perchloric acid precipitates with 1 ml of […] NaOH using the bicinchoninic assay (BCA Protein Assay Kit, Pierce).
(§3) Chromatographic separations were performed on Hypercarb (5 µm, 50×2.1 mm; Thermo Electron), Aquasil C18 (3 µm, 100×4.6 mm; Thermo Electron), or Hilic columns (5 µm, 100×3.0 mm; Waters Atlantis) by isocratic or gradient elution using 0.1% aqueous formic acid (A) and acetonitrile or methanol (B) as solvent system. For quantification, SRM transitions of a precursor ion [M+H]^+ into a specific fragment ion (peak area ratios relative to IS) were recorded in positive ESI mode at 1.0–1.5 mTorr collision pressure and 10–40 eV collision energy. External calibration curves were obtained from serial dilutions of the analyte in 4 mmol/l HClO4 by linear or logistic regression. Detection limit was at least 0.001 nmol/mg protein.

SH-SY5Y cells [2] = experiment: Uptake of cyclo(his-pro) and salsolinol into SH-SY5Y cells with transport inhibitors; format: cell-based, human; settings: substrates 10 µmol/l, 5 min; inhibitors 10 µmol/l (decynium-22 1 µmol/l)
Experimental: as §1, §2, §3

HTZ-146 cells [3] = experiment: MTT reduction cell viability assay, HTZ-146 cells; format: cell-based, human
Experimental: (§4) Cell viability was assessed in HEK-293 cells, human dopaminergic neuroblastoma cells (SH-SY5Y) and human glioblastoma cells (HTZ-146) by the MTT test as described.[22] […] For indication of metabolic activity, cells were treated with MTT reagent (15 µl of 1 mg/ml stock solution per well) for 1 h, and after drying of culture plates for 1 h at 37°C, the resulting formazan dye was extracted with isopropanol/HCl (100 µl 0.04 mol/l per well) and absorbance was determined spectrophotometrically at 568 nm. Results were in agreement with the data obtained by the tryptan blue exclusion method (data not shown).

SH-SY5Y cells [4] = experiment: MTT reduction cell viability assay, SH-SY5Y cells; format: cell-based, human
Experimental: as §4

[5] = target: T1, norepinephrine transporter (NET) (Homo sapiens, UniProt P23975); experiment: Specific uptake into norepinephrine transporter (NET) transfected HEK-293 cells; format: cell-based; settings: 10 µmol/l, 5 min incubation
T1 construct: expressed in transfected cells; host or cells: HEK-293, stably transfected; cDNA from C; Pifl (University of Vienna)
Excerpt: Pifl (University of Vienna).
1. Burnette WB, Bailey MD, Kukoyi S, Blakely RD, Trowbridge CG, et al. (1996) Human norepinephrine transporter kinetics using rotating disk electrode voltammetry. Anal Chem 68: 2932–2938. (0.90 MB TIF) Click here for additional data file.

[6] = substrate: O=C1NC(Cc2c[nH]cn2)C(=O)N2CCCC12; experiment: cells, lysate or membranes; settings: mean (s.e.m.), pH 7.4, 37.0 °C
[7] = 48 h, non-pretreated, read-out: EC50 (95% confidence interval), cell viability
[8] = other: specific uptake, 1 min of loading, n = 3

T1 sequence (P23975 whole entry): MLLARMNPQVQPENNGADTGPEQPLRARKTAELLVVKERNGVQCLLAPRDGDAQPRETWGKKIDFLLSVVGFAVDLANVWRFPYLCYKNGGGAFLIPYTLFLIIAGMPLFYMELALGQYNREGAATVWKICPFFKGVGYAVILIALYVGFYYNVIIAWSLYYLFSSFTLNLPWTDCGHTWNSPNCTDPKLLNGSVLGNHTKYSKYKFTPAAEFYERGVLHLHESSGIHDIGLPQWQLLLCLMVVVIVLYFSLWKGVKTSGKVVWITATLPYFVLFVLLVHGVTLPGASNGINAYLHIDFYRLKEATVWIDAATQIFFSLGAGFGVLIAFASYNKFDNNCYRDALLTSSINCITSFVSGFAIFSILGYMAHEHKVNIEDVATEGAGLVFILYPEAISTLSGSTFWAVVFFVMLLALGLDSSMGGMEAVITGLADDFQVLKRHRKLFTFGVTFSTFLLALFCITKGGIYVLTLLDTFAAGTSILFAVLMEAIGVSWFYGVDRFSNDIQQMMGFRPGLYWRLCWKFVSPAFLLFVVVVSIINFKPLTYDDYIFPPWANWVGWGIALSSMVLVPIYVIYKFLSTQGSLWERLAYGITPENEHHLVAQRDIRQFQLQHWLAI

CCN1/C(=C/c2ccc3ccccc3[n+]2CC)C=Cc2ccccc21.[I-] [decynium-22]
effect of coincubated inhibitor on uptake of cyclo(his-pro) and salsolinol (HTZ-146 cells [1]): almost abolished
effect of coincubated inhibitor on uptake of cyclo(his-pro) and salsolinol (SH-SY5Y cells [2]): almost abolished

N[C@@H](CCC(=O)O)C(=O)O [glutamate, reference compound]
EC50 (HTZ-146 cells [3]; [7]): 585 µM
EC50 (SH-SY5Y cells [4]; [7]): 389 µM

Fc1ccc(C(OCCN2CCN(CCCc3ccccc3)CC2)c2ccc(F)cc2)cc1 [GBR12909]
effect of coincubated inhibitor on uptake of cyclo(his-pro) and salsolinol (HTZ-146 cells [1]): not different from control conditions
effect of coincubated inhibitor on uptake of cyclo(his-pro) and salsolinol (SH-SY5Y cells [2]): not different from control conditions

C[C@]12N[C@H](Cc3ccccc31)c1ccccc12 [(+)-MK-801, reference compound]
effect on cell death caused by glutamate as well as salsolinol (HTZ-146 cells [3]; (+)-MK-801 10 µmol/l present): attenuated
effect on cell death caused by glutamate as well as salsolinol (SH-SY5Y cells [4]; (+)-MK-801 10 µmol/l present): attenuated

CNCCCN1c2ccccc2CCc2ccccc21 [desipramine]
effect of coincubated inhibitor on uptake of cyclo(his-pro) and salsolinol (HTZ-146 cells [1]): not different from control conditions
effect of coincubated inhibitor on uptake of cyclo(his-pro) and salsolinol (SH-SY5Y cells [2]): not different from control conditions

NCCc1ccc(O)cc1 [tyramine, reference compound]
substrate of NET (specific uptake) [5]: excellent NET substrate

CC(COc1ccccc1)N(CCCl)Cc1ccccc1 (stereo not drawn) [phenoxybenzamine]
effect of coincubated inhibitor on uptake of cyclo(his-pro) and salsolinol (HTZ-146 cells [1]): almost abolished
effect of coincubated inhibitor on uptake of cyclo(his-pro) and salsolinol (SH-SY5Y cells [2]): almost abolished

B1: organic cation transporter OCT2 (wild-type 400R) (Homo sapiens; S270A) (protein)
chain: MPTTVDDVLEHGGEFHFFQKQMFFLLALLSATFAPIYVGIVFLGFTPDHRCRSPGVAELSLRCGWSPAEELNYTVPGPGPAGEASPRQCRRYEVDWNQSTFDCVDPLASLDTNRSRLPLGPCRDGWVYETPGSSIVTEFNLVCANSWMLDLFQSSVNVGFFIGSMSIGYIADRFGRKLCLLTTVLINAAAGVLMAISPTYTWMLIFRLIQGLVSKAGWLIGYILITEFVGRRYRRTVGIFYQVAYTVGLLVLAGVAYALPHWRWLQFTVALPNFFFLLYYWCIPESPRWLISQNKNAEAMRIIKHIAKKNGKSLPASLQRLRLEEETGKKLNPSFLDLVRTPQIRKHTMILMYNWFTSSVLYQGLIMHMGLAGDNIYLDFFYSALVEFPAAFMIILTIDRIGRRYPWAASNMVAGAACLASVFIPGDLQWLKIIISCLGRMGITMAYEIVCLVNAELYPTFIRNLGVHICSSMCDIGGIITPFLVYRLTNIWLELPLMVFGVLGLVAGGLVLLLPETKGKALPETIEEAENMQRPRKNKEKMIYLQVQKLDIPLN
Km [6, 8]: 74 (12) µmol/l
Vmax [6, 8]: 0.003 µmol/min/mg
Vmax/Km [6, 8]: 41 µl/mg protein/min

B2: OCT2 variant A270S (Homo sapiens) (protein)
chain: MPTTVDDVLEHGGEFHFFQKQMFFLLALLSATFAPIYVGIVFLGFTPDHRCRSPGVAELSLRCGWSPAEELNYTVPGPGPAGEASPRQCRRYEVDWNQSTFDCVDPLASLDTNRSRLPLGPCRDGWVYETPGSSIVTEFNLVCANSWMLDLFQSSVNVGFFIGSMSIGYIADRFGRKLCLLTTVLINAAAGVLMAISPTYTWMLIFRLIQGLVSKAGWLIGYILITEFVGRRYRRTVGIFYQVAYTVGLLVLAGVAYALPHWRWLQFTVSLPNFFFLLYYWCIPESPRWLISQNKNAEAMRIIKHIAKKNGKSLPASLQRLRLEEETGKKLNPSFLDLVRTPQIRKHTMILMYNWFTSSVLYQGLIMHMGLAGDNIYLDFFYSALVEFPAAFMIILTIDRIGRRYPWAASNMVAGAACLASVFIPGDLQWLKIIISCLGRMGITMAYEIVCLVNAELYPTFIRNLGVHICSSMCDIGGIITPFLVYRLTNIWLELPLMVFGVLGLVAGGLVLLLPETKGKALPETIEEAENMQRPRKNKEKMIYLQVQKLDIPLN
Km ([6]; other: 1 min of loading): 75 (11) µmol/l
Vmax ([6]; other: 1 min of loading): 0.0032 µmol/min/mg

B3: OCT2 variant K432Q (Homo sapiens; K432Q/S270A) (protein)
chain: MPTTVDDVLEHGGEFHFFQKQMFFLLALLSATFAPIYVGIVFLGFTPDHRCRSPGVAELSLRCGWSPAEELNYTVPGPGPAGEASPRQCRRYEVDWNQSTFDCVDPLASLDTNRSRLPLGPCRDGWVYETPGSSIVTEFNLVCANSWMLDLFQSSVNVGFFIGSMSIGYIADRFGRKLCLLTTVLINAAAGVLMAISPTYTWMLIFRLIQGLVSKAGWLIGYILITEFVGRRYRRTVGIFYQVAYTVGLLVLAGVAYALPHWRWLQFTVALPNFFFLLYYWCIPESPRWLISQNKNAEAMRIIKHIAKKNGKSLPASLQRLRLEEETGKKLNPSFLDLVRTPQIRKHTMILMYNWFTSSVLYQGLIMHMGLAGDNIYLDFFYSALVEFPAAFMIILTIDRIGRRYPWAASNMVAGAACLASVFIPGDLQWLQIIISCLGRMGITMAYEIVCLVNAELYPTFIRNLGVHICSSMCDIGGIITPFLVYRLTNIWLELPLMVFGVLGLVAGGLVLLLPETKGKALPETIEEAENMQRPRKNKEKMIYLQVQKLDIPLN
Km ([6]; other: 1 min of loading): 78 (12) µmol/l
Vmax ([6]; other: 1 min of loading): 0.0031 µmol/min/mg

B4: OCT2 variant R400C (Homo sapiens; R400C/S270A) (protein)
chain: MPTTVDDVLEHGGEFHFFQKQMFFLLALLSATFAPIYVGIVFLGFTPDHRCRSPGVAELSLRCGWSPAEELNYTVPGPGPAGEASPRQCRRYEVDWNQSTFDCVDPLASLDTNRSRLPLGPCRDGWVYETPGSSIVTEFNLVCANSWMLDLFQSSVNVGFFIGSMSIGYIADRFGRKLCLLTTVLINAAAGVLMAISPTYTWMLIFRLIQGLVSKAGWLIGYILITEFVGRRYRRTVGIFYQVAYTVGLLVLAGVAYALPHWRWLQFTVALPNFFFLLYYWCIPESPRWLISQNKNAEAMRIIKHIAKKNGKSLPASLQRLRLEEETGKKLNPSFLDLVRTPQIRKHTMILMYNWFTSSVLYQGLIMHMGLAGDNIYLDFFYSALVEFPAAFMIILTIDCIGRRYPWAASNMVAGAACLASVFIPGDLQWLKIIISCLGRMGITMAYEIVCLVNAELYPTFIRNLGVHICSSMCDIGGIITPFLVYRLTNIWLELPLMVFGVLGLVAGGLVLLLPETKGKALPETIEEAENMQRPRKNKEKMIYLQVQKLDIPLN
Km ([6]; other: 1 min of loading): 51 (6)^# µmol/l
Vmax ([6]; other: 1 min of loading): 0.001 µmol/min/mg

B5: OCT2 variant M165I (Homo sapiens; M165I/S270A) (protein)
chain: MPTTVDDVLEHGGEFHFFQKQMFFLLALLSATFAPIYVGIVFLGFTPDHRCRSPGVAELSLRCGWSPAEELNYTVPGPGPAGEASPRQCRRYEVDWNQSTFDCVDPLASLDTNRSRLPLGPCRDGWVYETPGSSIVTEFNLVCANSWMLDLFQSSVNVGFFIGSISIGYIADRFGRKLCLLTTVLINAAAGVLMAISPTYTWMLIFRLIQGLVSKAGWLIGYILITEFVGRRYRRTVGIFYQVAYTVGLLVLAGVAYALPHWRWLQFTVALPNFFFLLYYWCIPESPRWLISQNKNAEAMRIIKHIAKKNGKSLPASLQRLRLEEETGKKLNPSFLDLVRTPQIRKHTMILMYNWFTSSVLYQGLIMHMGLAGDNIYLDFFYSALVEFPAAFMIILTIDRIGRRYPWAASNMVAGAACLASVFIPGDLQWLKIIISCLGRMGITMAYEIVCLVNAELYPTFIRNLGVHICSSMCDIGGIITPFLVYRLTNIWLELPLMVFGVLGLVAGGLVLLLPETKGKALPETIEEAENMQRPRKNKEKMIYLQVQKLDIPLN
Km ([6]; other: 1 min of loading): 78 (15) µmol/l
Vmax ([6]; other: 1 min of loading): 0.0029 µmol/min/mg
